From ChEMBL document CHEMBL4814068, “Synthesis and structure-activity relationships of new chiral spiro-β-lactams highly active against HIV-1 and Plasmodium” (Eur J Med Chem, 2021)

Assays:
[1] = tested on: Human immunodeficiency virus 1; assay: Antiviral activity against HIV1 SG3.1 infected in human TZM-bl cells assessed as inhibition of viral replication at 10 ug/ml measured after 48 hrs by single round viral infectivity assay based Steady-Glo luciferase assay; format: functional; details: Human immunodeficiency virus 1, SG3.1, TZM-bl
[2] = Cytotoxicity against human TZM-bl cells assessed as reduction in cell viability by AlamarBlue assay; format: cell-based
[3] = tested on: Human immunodeficiency virus 1; assay: Antiviral activity against HIV1 SG3.1 infected in human TZM-bl cells measured after 48 hrs by single round viral infectivity assay based Steady-Glo luciferase assay; format: functional, organism-based; details: Human immunodeficiency virus 1, SG3.1, TZM-bl; for IC50: 48 h; for IC90: time 48 hrs
Plasmodium berghei = assay: Antiplasmodial activity against hepatic stage of Plasmodium berghei infected in human Huh7 cells assessed as reduction in parasite growth treated 1 hr prior to infection and measured after 48 hrs by firefly luciferase based bioluminescence assay; format: functional, organism-based; details: Huh-7
Plasmodium falciparum = assay: Antiplasmodial activity against blood stage of Plasmodium falciparum NF54 assessed as inhibition of parasite growth measured after […] by SYBR green 1 dye based flow cytometry; format: functional, organism-based
Huh-7 = assay: Cytotoxicity against human Huh-7 cells assessed as reduction in cell viability by AlamarBlue assay; format: cell-based
[4] = tested on: Human immunodeficiency virus 2; assay: Antiviral activity against HIV2 03PTHCC19 infected in human TZM-bl cells measured after 48 hrs by single round viral infectivity assay based Steady-Glo luciferase assay; format: functional, organism-based; details: Human immunodeficiency virus 2, 03PTHCC19, TZM-bl

| Compound | inhibition at 10 µg/mL [1] [%] | CC50 [2] [µM] | other results |
| --- | --- | --- | --- |
| CCOC(=O)C1=CC2(N=N1)C(=O)N1[C@@H](C(=O)OC(c3ccccc3)c3ccccc3)C(C)(C)S[C@@H]12 (some centres undefined) | 0 | 46.9 | – |
| CC(C)(C)OC(=O)C1=CCC2(C(=O)N3[C@@H](C(=O)OC(c4ccccc4)c4ccccc4)C(C)(C)S[C@@H]32)C1C(=O)c1ccccc1 (some centres undefined) | 0 | 44.4 | – |
| CCOC(=O)C1=CCC2(C(=O)N3[C@@H](C(=O)OC(c4ccccc4)c4ccccc4)C(C)(C)S[C@@H]32)C1C(=O)c1ccccc1 (some centres undefined) | 99 | 59 | IC50 [3]: 0.305 µM; IC90 [3]: 0.479 µM; IC50 (Plasmodium berghei): 1.92 µM; IC50 (Plasmodium falciparum): 0.844 µM; Activity (Huh-7): Non-Toxic |
| COC(=O)C1CC2(N=N1)C(=O)N1[C@@H](C(=O)OC(c3ccccc3)c3ccccc3)C(C)(C)S[C@@H]12 (some centres undefined) | – | – | IC50 [3]: 0.012 µM; IC50 (Plasmodium berghei): < 10 µM |
| CC(C)(C)OC(=O)C1=CCC(C(=O)c2ccccc2)C12C(=O)N1[C@@H](C(=O)OC(c3ccccc3)c3ccccc3)C(C)(C)S[C@@H]12 (some centres undefined) | 0 | 43.2 | – |
| CC1(C)S[C@H]2N(C(=O)C23C[C@@H]2CN=N[C@]2(C(=O)OCc2ccccc2)C3C(=O)c2ccccc2)[C@H]1C(=O)OC(c1ccccc1)c1ccccc1 (some centres undefined) | 0 | 41.8 | – |
| CCOC(=O)C1=CCC(C(=O)c2ccccc2)C12C(=O)N1[C@@H](C(=O)OC(c3ccccc3)c3ccccc3)C(C)(C)S[C@@H]12 (some centres undefined) | 0 | 57.1 | – |
| CC(C)(C)OC(=O)C1=CC2(N=N1)C(=O)N1[C@@H](C(=O)O)C(C)(C)S[C@@H]12 (some centres undefined) | 0 | 79 | – |
| CC1(C)S[C@H]2N(C(=O)C23CC=C(C(=O)OCc2ccccc2)C3C(=O)c2ccccc2)[C@H]1C(=O)O (some centres undefined) | 0 | 60.3 | – |
| CCOC(=O)C1=CC2(N=N1)C(=O)N1[C@@H](C(=O)O)C(C)(C)S[C@@H]12 (some centres undefined) | 0 | 83.8 | – |
| CC1(C)S[C@H]2N(C(=O)C23C=C(C(=O)Oc2ccc4ccccc4c2)N=N3)[C@H]1C(=O)OC(c1ccccc1)c1ccccc1 (some centres undefined) | 0 | 49.1 | – |
| COC(=O)C1=CC2(N=N1)C(=O)N1[C@@H](C(=O)OC)C(C)(C)S[C@@H]12 (some centres undefined) | 0 | 89.8 | – |
| CC1(C)S[C@H]2N(C(=O)C23NN=C(C(=O)OCc2ccccc2)C3C(=O)c2ccccc2)[C@H]1C(=O)OC(c1ccccc1)c1ccccc1 (some centres undefined) | – | 17.2 | – |
| COC(=O)[C@@H]1N2C(=O)C3(C(C(=O)OCc4ccccc4)=CCC3C(=O)c3ccccc3)[C@H]2SC1(C)C (some centres undefined) | 0 | 55.4 | – |
| CC(=O)C1C(C(=O)OCc2ccccc2)=CCC12C(=O)N1[C@@H](C(=O)OC(c3ccccc3)c3ccccc3)C(C)(C)S[C@@H]12 (some centres undefined) | – | – | IC50 [3]: 0.65 µM; IC50 (Plasmodium berghei): < 5 µM; IC50 [4]: 0.51 µM |
| COC(=O)C1=CCC(C(=O)c2ccccc2)C12C(=O)N1[C@@H](C(=O)OC(c3ccccc3)c3ccccc3)C(C)(C)S[C@@H]12 (some centres undefined) | 0 | 54.9 | – |
| CC1(C)S[C@H]2N(C(=O)C23C=C(C(=O)OC(c2ccccc2)c2ccccc2)N=N3)[C@H]1C(=O)OC(c1ccccc1)c1ccccc1 (some centres undefined) | 0 | 54.4 | – |
| COC(=O)C1=CCC2(C(=O)N3[C@@H](C(=O)OC(c4ccccc4)c4ccccc4)C(C)(C)S[C@@H]32)C1C(=O)c1ccccc1 (some centres undefined) | 99 | 53.2 | IC50 [3]: 0.058 µM; IC90 [3]: 0.233 µM; IC50 (Plasmodium berghei): 2.29 µM; IC50 (Plasmodium falciparum): 1.26 µM; Activity (Huh-7): Non-Toxic |
| CC1(C)S[C@H]2N(C(=O)C23C=C(C(=O)O)N=N3)[C@H]1C(=O)O (some centres undefined) | 0 | 101 | – |
| CC(C)(C)OC(=O)C1=CC2(N=N1)C(=O)N1[C@@H](C(=O)OC(c3ccccc3)c3ccccc3)C(C)(C)S[C@@H]12 (some centres undefined) | 0 | 55.1 | – |
| CC1(C)S[C@H]2N(C(=O)C23C(C(=O)OCc2ccccc2)=CCC3C(=O)c2ccccc2)[C@H]1C(=O)O (some centres undefined) | 0 | 56.6 | – |
| CC1(C)S[C@H]2N(C(=O)C23CC=C(C(=O)OCc2ccccc2)C3C(=O)OCc2ccccc2)[C@H]1C(=O)OC(c1ccccc1)c1ccccc1 (some centres undefined) | 0 | 43.2 | – |
| COC(=O)C1=CC2(N=N1)C(=O)N1[C@@H](C(=O)NO)C(C)(C)S[C@@H]12 (some centres undefined) | 0 | 76.8 | – |
| CC1(C)S[C@H]2N(C(=O)C23C=C(C(=O)Oc2ccc4ccccc4c2)N=N3)[C@H]1C(=O)O (some centres undefined) | 0 | 68.6 | – |
| CC1(C)S[C@H]2N(C(=O)C23CC=C(C(=O)OCc2ccccc2)C3C(=O)c2ccccc2)[C@H]1C(=O)OC(c1ccccc1)c1ccccc1 (some centres undefined) | – | – | IC50 [3]: 0.014 µM; IC50 (Plasmodium berghei): 0.55 µM; IC50 (Plasmodium falciparum): 0.43 µM; IC50 [4]: 0.008 µM |
| CC1(C)S[C@H]2N(C(=O)C23N=NC(C(=O)OC(c2ccccc2)c2ccccc2)=C3C(=O)OC(c2ccccc2)c2ccccc2)[C@H]1C(=O)OC(c1ccccc1)c1ccccc1 (some centres undefined) | 0 | 33.5 | – |
